Test results published in patent US20230085307A1, “PYRIDAZINONE COMPOUND AND HERBICIDE” (NISSAN CHEMICAL CORPORATION, priority 2019, published 2023).

How the values were obtained:
[1] = system: late watergrass; experiment: Test Example 1: herbicidal activity, application before weed generation under submerged conditions (Table 16, symbol A); format: in vivo, late watergrass (Echinochloa oryzicola); settings: 320 g/ha applied herbicide
In short: (§1)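 Emulsion formulation, water-diluted to set dose, was put onto the flooded surface (4 cm depth, alluvial soil) the same day weeds were sown and 2.5-leaf rice transplanted. After 3 weeks at 25-30 °C under glass, each species was rated 0 (≤5% kill) to 5 (≥90% kill).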

[2] = system: Japanese bulrush; experiment: Test Example 1: herbicidal activity, application before weed generation under submerged conditions (Table 16, symbol B); format: in vivo, Japanese bulrush (Schoenoplectus juncoides); settings: 320 g/ha applied herbicide
In short: as §1

[3] = system: late watergrass; experiment: Test Example 2: herbicidal activity, application during weed generation under submerged conditions (Table 17, symbol A); format: in vivo, late watergrass (Echinochloa oryzicola); settings: AAH 320 g/ha; application during weed generation, submerged conditions
In short: (§2)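 Steps: fill Wagner pots with alluvial soil; add water to give 4 cm depth; sow the species mixed; grow under glass at 25–30° C.; at 1–2 leaves apply water-diluted emulsion formulation to the water surface at a fixed herbicide amount; score after 3 weeks.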

[4] = system: oval-leafed pondweed; experiment: Test Example 2: herbicidal activity, application during weed generation under submerged conditions (Table 17, symbol C); format: in vivo, oval-leafed pondweed (Monochoria vaginalis); settings: AAH 320 g/ha; application during weed generation, submerged conditions
In short: as §2

[5] = system: barnyard grass; experiment: Test Example 3: herbicidal effect by foliage application, Wagner pot (Table 18, symbol H); format: in vivo, barnyard grass (Echinochloa crus-galli); settings: for herbicidal effect on H (barnyard grass), rating 0-5: 320 g/ha
In short: (§3)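 Plants were sown in alluvial soil held under 0.1–0.5 cm standing water and grown 14 days in a greenhouse at 25–30 °C. An emulsifiable formulation, water-diluted to the set dose, was then sprayed onto the foliage, and effects were scored three weeks later using previously defined criteria.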

[6] = system: Chinese sprangletop; experiment: Test Example 3: herbicidal effect by foliage application, Wagner pot (Table 18, symbol D); format: in vivo, chinese sprangletop (Leptochloa chinensis); settings: for herbicidal effect on D (Chinese sprangletop), rating 0-5: 320 g/ha
In short: as §3

[7] = system: rice flat sedge; experiment: Test Example 3: herbicidal effect by foliage application, Wagner pot (Table 18, symbol E); format: in vivo, rice flat sedge (Cyperus iria); settings: for herbicidal effect on E (rice flat sedge), rating 0-5: 320 g/ha
In short: as §3

[8] = system: Italian ryegrass; experiment: Test Example 4: herbicidal effect by soil treatment (Table 19, symbol K); format: in vivo, Italian ryegrass (Lolium multiflorum); settings: for K: Italian ryegrass, herbicidal effect rating: AAH 320 g/ha
In short: (§4)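 Herbicidal effect was rated 3 weeks after treatment, using the scoring criteria of an earlier test. The compound, formulated as an emulsion and diluted in water to a set herbicide amount, had been sprayed uniformly on soil over freshly sown seeds. Growth took place in a greenhouse at 25° C. to 30° C.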

[9] = system: redroot pigweed; experiment: Test Example 4: herbicidal effect by soil treatment (Table 19, symbol N); format: in vivo, redroot pigweed (Amaranthus retroflexus); settings: for N: redroot pigweed, herbicidal effect rating: AAH 320 g/ha
In short: as §4

[10] = system: green foxtail; experiment: Test Example 5: herbicidal effect by foliage application, plastic box (Table 20, symbol G); format: in vivo, green foxtail (Setaria viridis); settings: foliage application; for G: green foxtail, herbicidal effect: three weeks after application
In short: (§5)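 Foliar spray test: emulsion formulation diluted in water to a set application rate, sprayed onto 14-day-old plants raised in diluvial soil at 25° C to 30° C under glass. Both herbicidal effect and crop effect rated visually three weeks later.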

[11] = system: barnyard grass; experiment: Test Example 5: herbicidal effect by foliage application, plastic box (Table 20, symbol H); format: in vivo, barnyard grass (Echinochloa crus-galli); settings: foliage application; for H: barnyard grass, herbicidal effect: three weeks after application
In short: as §5

[12] = system: wild oat; experiment: Test Example 5: herbicidal effect by foliage application, plastic box (Table 20, symbol I); format: in vivo, wild oat (Avena fatua); settings: foliage application; for I: wild oat, herbicidal effect: three weeks after application
In short: as §5

[13] = system: blackgrass; experiment: Test Example 5: herbicidal effect by foliage application, plastic box (Table 20, symbol J); format: in vivo, blackgrass (Alopecurus myosuroides); settings: foliage application; for J: blackgrass, herbicidal effect: three weeks after application
In short: as §5

[14] = system: Italian ryegrass; experiment: Test Example 5: herbicidal effect by foliage application, plastic box (Table 20, symbol K); format: in vivo, Italian ryegrass (Lolium multiflorum); settings: foliage application; for K: Italian ryegrass, herbicidal effect: three weeks after application
In short: as §5

[15] = system: redroot pigweed; experiment: Test Example 5: herbicidal effect by foliage application, plastic box (Table 20, symbol N); format: in vivo, redroot pigweed (Amaranthus retroflexus); settings: foliage application; for N: redroot pigweed, herbicidal effect: three weeks after application
In short: as §5

[16] = amount of applied herbicide 320 g/ha
[17] = 320 g/ha, 3 weeks after application
[18] = 320 g/ha, evaluated three weeks after application
[19] = AAH 320 g/ha, evaluated three weeks after application

C=CCOc1ccccc1-c1sc2ccccc2c1-c1c(O)c(C)nn(C)c1=O [1-110]
Herbicidal effect on A: late watergrass (grade 0-5) [1]: 3 (Herbicidal rate of 40% or more and less than 70%) | Herbicidal effect on B: Japanese bulrush (grade 0-5) [2]: 0 (Herbicidal rate of 5% or less (almost no effect)) | herbicidal effect rating, A: late watergrass [3]: 3 (Herbicidal rate of 40% or more and less than 70%) | herbicidal effect rating, C: oval-leafed pondweed [4]: 0 (Herbicidal rate of 5% or less (almost no effect)) | herbicidal effect on H (barnyard grass), rating 0-5 [5]: 4 (Herbicidal rate of 70% or more and less than 90%) | herbicidal effect on D (Chinese sprangletop), rating 0-5 [6]: 3 (Herbicidal rate of 40% or more and less than 70%) | herbicidal effect on E (rice flat sedge), rating 0-5 [7]: 4 (Herbicidal rate of 70% or more and less than 90%) | herbicidal effect rating, K: Italian ryegrass [8, 16]: 2 (Herbicidal rate of 20% or more and less than 40%) | herbicidal effect rating, N: redroot pigweed [9, 16]: 0 (Herbicidal rate of 5% or less (almost no effect)) | G: green foxtail, herbicidal effect ([10]; AAH 320 g/ha): 4 (Herbicidal rate of 70% or more and less than 90%) | H: barnyard grass, herbicidal effect ([11]; AAH 320 g/ha): 3 (Herbicidal rate of 40% or more and less than 70%) | I: wild oat, herbicidal effect ([12]; AAH 320 g/ha): 3 (Herbicidal rate of 40% or more and less than 70%) | J: blackgrass, herbicidal effect ([13]; AAH 320 g/ha): 4 (Herbicidal rate of 70% or more and less than 90%) | K: Italian ryegrass, herbicidal effect ([14]; AAH 320 g/ha): 0 (Herbicidal rate of 5% or less (almost no effect)) | N: redroot pigweed, herbicidal effect ([15]; AAH 320 g/ha): 0 (Herbicidal rate of 5% or less (almost no effect))

Cc1nn(C)c(=O)c(-c2c(-c3ccc(OCC(F)(F)F)cc3)sc3ccccc23)c1O [1-140]
Herbicidal effect on A: late watergrass (grade 0-5) [1]: 3 (Herbicidal rate of 40% or more and less than 70%) | Herbicidal effect on B: Japanese bulrush (grade 0-5) [2]: 2 (Herbicidal rate of 20% or more and less than 40%) | herbicidal effect rating, A: late watergrass [3]: 3 (Herbicidal rate of 40% or more and less than 70%) | herbicidal effect rating, C: oval-leafed pondweed [4]: 0 (Herbicidal rate of 5% or less (almost no effect)) | herbicidal effect on H (barnyard grass), rating 0-5 [5]: 5 (Herbicidal rate of 90% or more (almost completely withered)) | herbicidal effect on D (Chinese sprangletop), rating 0-5 [6]: 3 (Herbicidal rate of 40% or more and less than 70%) | herbicidal effect on E (rice flat sedge), rating 0-5 [7]: 5 (Herbicidal rate of 90% or more (almost completely withered)) | K: Italian ryegrass, herbicidal effect rating [8]: 5 (Herbicidal rate of 90% or more (almost completely withered)) | N: redroot pigweed, herbicidal effect rating [9]: 5 (Herbicidal rate of 90% or more (almost completely withered)) | G: green foxtail, herbicidal effect ([10]; AAH 320 g/ha): 5 (Herbicidal rate of 90% or more (almost completely withered)) | H: barnyard grass, herbicidal effect ([11]; AAH 320 g/ha): 5 (Herbicidal rate of 90% or more (almost completely withered)) | I: wild oat, herbicidal effect ([12]; AAH 320 g/ha): 0 (Herbicidal rate of 5% or less (almost no effect)) | J: blackgrass, herbicidal effect ([13]; AAH 320 g/ha): 4 (Herbicidal rate of 70% or more and less than 90%) | K: Italian ryegrass, herbicidal effect ([14]; AAH 320 g/ha): 5 (Herbicidal rate of 90% or more (almost completely withered)) | N: redroot pigweed, herbicidal effect ([15]; AAH 320 g/ha): 4 (Herbicidal rate of 70% or more and less than 90%)

Cc1nn(C)c(=O)c(-c2c(-c3ccc(OC(F)F)cc3)sc3ccccc23)c1O [1-201]
Herbicidal effect on A: late watergrass (grade 0-5) [1]: 3 (Herbicidal rate of 40% or more and less than 70%) | Herbicidal effect on B: Japanese bulrush (grade 0-5) [2]: 4 (Herbicidal rate of 70% or more and less than 90%) | herbicidal effect rating, A: late watergrass [3]: 0 (Herbicidal rate of 5% or less (almost no effect)) | herbicidal effect rating, C: oval-leafed pondweed [4]: 3 (Herbicidal rate of 40% or more and less than 70%) | herbicidal effect on H (barnyard grass), rating 0-5 [5]: 5 (Herbicidal rate of 90% or more (almost completely withered)) | herbicidal effect on D (Chinese sprangletop), rating 0-5 [6]: 4 (Herbicidal rate of 70% or more and less than 90%) | herbicidal effect on E (rice flat sedge), rating 0-5 [7]: 5 (Herbicidal rate of 90% or more (almost completely withered)) | K: Italian ryegrass, herbicidal effect rating [8]: 4 (Herbicidal rate of 70% or more and less than 90%) | N: redroot pigweed, herbicidal effect rating [9]: 5 (Herbicidal rate of 90% or more (almost completely withered)) | effect on green foxtail (G) [10, 17]: 5 (Herbicidal rate of 90% or more (almost completely withered)) | effect on barnyard grass (H) [11, 17]: 5 (Herbicidal rate of 90% or more (almost completely withered)) | effect on wild oat (I) [12, 17]: 2 (Herbicidal rate of 20% or more and less than 40%) | effect on blackgrass (J) [13, 17]: 4 (Herbicidal rate of 70% or more and less than 90%) | effect on Italian ryegrass (K) [14, 17]: 5 (Herbicidal rate of 90% or more (almost completely withered))

CCCC(=O)Oc1c(C)nn(C)c(=O)c1-c1c(-c2ccc(C(C)=O)cc2)sc2ccc(F)cc12 [2-078]
Herbicidal effect on A: late watergrass (grade 0-5) [1]: 5 (Herbicidal rate of 90% or more (almost completely withered)) | Herbicidal effect on B: Japanese bulrush (grade 0-5) [2]: 4 (Herbicidal rate of 70% or more and less than 90%) | herbicidal effect rating, A: late watergrass [3]: 3 (Herbicidal rate of 40% or more and less than 70%) | herbicidal effect rating, C: oval-leafed pondweed [4]: 4 (Herbicidal rate of 70% or more and less than 90%) | herbicidal effect on H (barnyard grass), rating 0-5 [5]: 3 (Herbicidal rate of 40% or more and less than 70%) | herbicidal effect on D (Chinese sprangletop), rating 0-5 [6]: 5 (Herbicidal rate of 90% or more (almost completely withered)) | herbicidal effect on E (rice flat sedge), rating 0-5 [7]: 5 (Herbicidal rate of 90% or more (almost completely withered)) | herbicidal effect rating, K: Italian ryegrass ([8]; 320 g/ha): 4 (Herbicidal rate of 70% or more and less than 90%) | herbicidal effect rating, N: redroot pigweed ([9]; 320 g/ha): 4 (Herbicidal rate of 70% or more and less than 90%) | herbicidal effect on G: green foxtail [10, 18]: 3 (Herbicidal rate of 40% or more and less than 70%) | herbicidal effect on H: barnyard grass [11, 18]: 2 (Herbicidal rate of 20% or more and less than 40%) | herbicidal effect on I: wild oat [12, 18]: 2 (Herbicidal rate of 20% or more and less than 40%) | herbicidal effect on J: blackgrass [13, 18]: 4 (Herbicidal rate of 70% or more and less than 90%) | herbicidal effect on K: Italian ryegrass [14, 18]: 5 (Herbicidal rate of 90% or more (almost completely withered)) | herbicidal effect on N: redroot pigweed [15, 18]: 5 (Herbicidal rate of 90% or more (almost completely withered))

Cc1nn(C)c(=O)c(-c2c(-c3ccc(OC(F)F)cc3)sc3ccc(F)cc23)c1OC(=O)c1cccs1 [2-288]
Herbicidal effect on A: late watergrass (grade 0-5) [1]: 5 (Herbicidal rate of 90% or more (almost completely withered)) | Herbicidal effect on B: Japanese bulrush (grade 0-5) [2]: 5 (Herbicidal rate of 90% or more (almost completely withered)) | herbicidal effect rating, A: late watergrass [3]: 3 (Herbicidal rate of 40% or more and less than 70%) | herbicidal effect rating, C: oval-leafed pondweed [4]: 3 (Herbicidal rate of 40% or more and less than 70%) | herbicidal effect on H: barnyard grass [5, 16]: 5 (Herbicidal rate of 90% or more (almost completely withered)) | herbicidal effect on D: Chinese sprangletop [6, 16]: 4 (Herbicidal rate of 70% or more and less than 90%) | herbicidal effect on E: rice flat sedge [7, 16]: 5 (Herbicidal rate of 90% or more (almost completely withered)) | herbicidal effect on K: Italian ryegrass [8, 16]: 4 (Herbicidal rate of 70% or more and less than 90%) | herbicidal effect on N: redroot pigweed [9, 16]: 4 (Herbicidal rate of 70% or more and less than 90%) | G: green foxtail, herbicidal effect (criteria 0-5) [10, 19]: 5 (Herbicidal rate of 90% or more (almost completely withered)) | H: barnyard grass, herbicidal effect (criteria 0-5) [11, 19]: 5 (Herbicidal rate of 90% or more (almost completely withered)) | I: wild oat, herbicidal effect (criteria 0-5) [12, 19]: 1 (Herbicidal rate of 5% or more and less than 20%) | J: blackgrass, herbicidal effect (criteria 0-5) [13, 19]: 4 (Herbicidal rate of 70% or more and less than 90%) | K: Italian ryegrass, herbicidal effect (criteria 0-5) [14, 19]: 5 (Herbicidal rate of 90% or more (almost completely withered)) | N: redroot pigweed, herbicidal effect (criteria 0-5) [15, 19]: 5 (Herbicidal rate of 90% or more (almost completely withered))
